Literature values as cited in patent publication US20070281927A1, “Anti-inflammatory and analgesic compositions and related methods” (priority 2006, published 2007).

How the values were obtained:
[1] = not given; remark: listed apart in the source

time to maximum plasma concentration (after oral administration, many individuals): ≥ 5 h | time of second meloxicam concentration peak (post-dose, suggests gastrointestinal recirculation): twelve to fourteen | bioavailability (single 30 mg oral dose compared to 30 mg intravenous bolus injection): 89% | solubility in acidic or neutral mediums ([1]; acidic or neutral mediums): low solubility | solubility at the acidic pH range of the upper gastrointestinal tract ([1]; acidic pH range of the upper gastrointestinal tract): poorly soluble | solubility in water ([1]; water): practically insoluble
Structure (SMILES): Cc1cnc(NC(=O)C2=C(O)c3ccccc3S(=O)(=O)N2C)s1 [Meloxicam, 4-hydroxy-2-methyl-N-(5-methyl-2-thiazolyl-)-2H-1,2-benzothiazine-3-carboxamide 1,1-dioxide]
